From US8394786B2, “Quinazoline derivatives” (Janssen Pharmaceutica N.V., priority 2003, dated 2013)

Experiments:
[1] = target: EGFR (Homo sapiens, UniProt P00533); assay: In vitro inhibition of EGFR, Flash Plate or glass-fiber filter technology (C2); format: biochemical; design: 0.5 μg EGFR-kinase domain/well; settings: EGFR-kinase domain, 5.0 μM unlabeled ATP, read-out: Kinase activity.(C2): pIC50 (converted)
Experimental: The in vitro inhibition of EGFR was assessed using either the Flash Plate technology or the glass-fiber filter technology as described by Davies, S. P. et al., Biochem J. (2000), 351; p. 95-105. The Flash Plate technology is generally described by B. A. Brown et al. in High Throughput Screening (1997), p. 317-328. Editor(s): Devlin, John P. Publisher: Dekker, New York, N.Y.
In the Flash Plate EGFR kinase reaction assay, a kinase substrate consisting of biotinylated poly(L-glutamic acid-L-tyrosine) (poly(GT)biotin), is incubated with the aforementioned protein in the presence of (^33P) radiolabeled ATP. (^33P) phosphorylation of the substrate is subsequently measured as light energy emitted using a streptavidin-coated Flash Plate (PerkinElmer Life Sciences) by trapping and quantifying the binding of the biotin tagged and radiolabeled substrate.
The EGFR kinase reaction is performed at 30° C. for 60 minutes in a 96-well microtiter FlashPlate (PerkinElmer Life Sciences). For each of the tested compounds a full dose response 1·10^−6M to 1·10^−10M has been performed. IRESSA° and Tarceva™ (erlotinib) were used as reference compounds. The 100 μl reaction volume contains 54.5 mM TrisHCl pH 8.0, 10 mM MgCl2, 100 μM Na3VO4, 5.0 μM unlabeled ATP, 1 mM DTT, 0.009% BSA, 0.8 μCi AT^33P, 0.35 μg/well poly(GT)biotin and 0.5 μg EGFR-kinase domain/well.
The reaction is stopped by aspirating the reaction mixture and washing the plate 3× with 200 μl wash/stop buffer (PBS+100 mM EDTA). After the final wash step 200 μl of wash/stop buffer was added to each well and the amount of phosphorylated (^33P) Poly(GT)biotin determined by counting (30 sec/well) in a microtiterplate scintillation counter.
In the glass-fiber filter technology EGFR kinase reaction assay, a kinase substrate consisting of poly(L-glutamic acid-L-tyrosine) (poly(GT)), is incubated with the aforementioned protein in the presence of (^33P) radiolabeled ATP. (^33P) Phosporylation of the substrate is subsequently measured as radioactivity bound on a glassfiber-filter.
The EGFR kinase reaction is performed at 25° C. for 10 minutes in a 96-well microtiterplate. For each of the tested compounds a full dose response 1·10^−6M to 1·10^−10M has been performed. IRESSA° and Tarceva™ (erlotinib) were used as reference compounds. The 25 μl reaction volume contains 60 mM TrisHCl pH 7.5, 3 mM MgCl2, 3 mM Mn Cl2, 3 μM Na3VO4, 50 μg/ml PEG20000, 5.0 μM unlabeled ATP, 1 mM DTT, 0.1 μCi AT^33P, 62.5 ng/well poly(GT) and 0.5 μg EGFR-kinase domain/well.
The reaction is stopped by adding 5 μl of a 3% phosphoric acid solution. 10 μl of the reaction mixture is then spotted onto a Filtermat A filter (Wallac) and washed 3 times for 5 min. in 75 mM phosphoric acid and 1 time for 5 min. in methanol prior to drying and quantification on the Typhoon (Amersham) using a LE phosphorage storage screen.

[2] = tested on: SKOV3 cells; assay: Serum starved proliferation assay on the ovarian carcinoma SKOV3 cells (C3); format: cell-based; settings: EGF stimulated (100 ng/ml, 72 hours, serum free) or 72 hours with compounds, MTT cell viability assay; for IC50: Homo sapiens, SK-OV-3, 72 h, read-out: SKOV3 cell (C3): pIC50 (converted)
Experimental: The ovarian carcinoma cell line (SKOV3) was used in an epidermal growth factor stimulated cell proliferation assay, to assess the inhibitory effect of the compounds on EGF in whole cells.
In a first step the SKOV3 cells were incubated for 24 hours in the presence of 10% FCS serum. In the second step the cells were incubated with the compounds to be tested in a serum free condition (37° C. and 5% (v/v) CO2) and subsequently stimulated for 72 hours with EGF at a final concentration of 100 ng/ml. The effect of the compounds on the EGF stimulation was finally assessed in a standard MTT cell viability assay.
Alternatively, the SKOV3 cells were incubated for 24 hours in the presence of 10% FCS serum. In the second step the cells were incubated for 72 hours with the compounds to be tested and the effect of the compounds on cell proliferation was finally assessed in a standard MTT cell viability assay.

Sequence of EGFR (P00533 712-979 limits assumed): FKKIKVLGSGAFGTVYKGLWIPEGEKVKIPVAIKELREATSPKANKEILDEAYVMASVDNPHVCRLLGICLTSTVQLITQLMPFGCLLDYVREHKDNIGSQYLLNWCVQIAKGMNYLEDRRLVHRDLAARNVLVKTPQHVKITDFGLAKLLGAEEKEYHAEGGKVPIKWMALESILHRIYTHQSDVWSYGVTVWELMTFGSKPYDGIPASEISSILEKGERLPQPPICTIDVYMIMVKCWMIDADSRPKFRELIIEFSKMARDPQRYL

Row | SMILES | IC50 [1] [nM] | SKOV3 cell (C3): pIC50 [2] | IC50 [2] [nM]
1 | COc1cc2ncnc3c2cc1OCCCC=CCCCC(=O)NCc1ccc(Cl)cc1N3 [Compound 105, 4,6-ethanediylidenepyrimido[4,5-b][6,1,16]benzoxadiazacyclononadecin-16(17H)-one, 21-chloro-8,9,10,13,14,15,18,23-octahydro-24-methoxy-] | 158 | 7.6 | 
2 | COc1cc2ncnc3c2cc1OCCCC=CCCCC(=O)NCc1ccc(Cl)cc1N3 [Compound 106, 4,6-ethanediylidenepyrimido[4,5-b][6,1,16]benzoxadiazacyclononadecin-16(17H)-one, 21-chloro-8,9,10,13,14,15,18,23-octahydro-24-methoxy-] | 100 | 7.2 | 
3 | COc1cc2ncnc3c2cc1OCCC=CCCCC(=O)NCc1ccc(Cl)cc1N3 [Compound 108, 4,6-ethanediylidene-8H-pyrimido[4,5-b][6,1,15]benzoxadiazacyclooctadecin-15(16H)-one, 20-chloro-9,12,13,14,17,22-hexahydro-23-methoxy-] | 398 |  | 158
4 | COc1cc2ncnc3c2cc1OCCCC=CCC(NC(=O)OC(C)(C)C)C(=O)NCc1ccc(Cl)cc1N3 (stereo not drawn) [Compound 109, carbamic acid, (20-chloro-9,10,13,14,15,16,17,22-octahydro-23-methoxy-15-oxo-4,6-ethanediylidene-8H-pyrimido[4,5-b][6,1,15]benzoxadiazacyclooctadecin-14-yl)-, 1,1-dimethylethyl ester] | 2000 | 6.5 | 
5 | COc1cc2ncnc3c2cc1OCCCCCCC(NC(=O)OC(C)(C)C)C(=O)NCc1ccc(Cl)cc1N3 (stereo not drawn) [Compound 111, carbamic acid, (20-chloro-9,10,11,12,13,14,15,16,17,22-decahydro-23-methoxy-15-oxo-4,6-ethanediylidene-8H-pyrimido[4,5-b][6,1,15]benzoxadiazacyclooctadecin-14-yl)-, 1,1-dimethylethyl ester] | 1580 |  | 10000
6 | COc1cc2ncnc3c2cc1OCCCCCNCCN(C)Cc1ccc(Cl)cc1N3 [Compound 117, 4,6-ethanediylidene-8H-pyrimido[4,5-b][6,1,12,15]benzoxatriazacyclooctadecine, 20-chloro-9,10,11,12,13,14,15,16,17,22-decahydro-23-methoxy-16-methyl-] | 200 |  | 3980
7 | COc1cc2ncnc3c2cc1OCC(=O)NC(C)C(=O)NCCc1ccc(Cl)cc1N3 (stereo not drawn) [Compound 119, 4,6-ethanediylidene-8H-pyrimido[4,5-b][6,1,9,12]benzoxatriazacyclohexadecine-9,12-dione, 18-chloro-10,11,13,14,15,20-hexahydro-21-methoxy-11-methyl-] | 1000 |  | 1580
8 | COc1cc2ncnc3c2cc1OCC(=O)NC(C)C(=O)NCc1ccc(Cl)cc1N3 (stereo not drawn) [Compound 120, 4,6-ethanediylidenepyrimido[4,5-b][6,1,9,12]benzoxatriazacyclopentadecine-9,12(8H,13H)-dione, 17-chloro-10,11,14,19-tetrahydro-20-methoxy-11-methyl-] | 2000 |  | 1000
9 | COc1cc2ncnc3c2cc1OCC(=O)NC(C(C)C)C(=O)NCc1ccc(Cl)cc1N3 (stereo not drawn) [Compound 121, 4,6-ethanediylidenepyrimido[4,5-b][6,1,9,12]benzoxatriazacyclopentadecine-9,12(8H,13H)-dione, 17-chloro-10,11,14,19-tetrahydro-20-methoxy-11-(1-methylethyl)-] | 2510 |  | 10000
10 | COc1cc2ncnc3c2cc1OCC(=O)NC(Cc1ccccc1)C(=O)NCc1ccc(Cl)cc1N3 (stereo not drawn) [Compound 122, 4,6-ethanediylidenepyrimido[4,5-b][6,1,9,12]benzoxatriazacyclopentadecine-9,12(8H,13H)-dione, 17-chloro-10,11,14,19-tetrahydro-20-methoxy-11-(phenylmethyl)-] | 398 |  | 10000
11 | COc1cc2ncnc3c2cc1OCC(=O)NC(C)C(=O)NCc1ccccc1N3 (stereo not drawn) [Compound 123, 4,6-ethanediylidenepyrimido[4,5-b][6,1,9,12]benzoxatriazacyclopentadecine-9,12(8H,13H)-dione, 10,11,14,19-tetrahydro-20-methoxy-11-methyl-] | 6310 |  | 10000
12 | COc1cc2ncnc3c2cc1OCC(=O)N1CCCC1C(=O)NCc1ccccc1N3 (stereo not drawn) [Compound 125, 9,11-ethanediylidenepyrimido[4,5-b]pyrrolo[1,2-i][6,1,9,12]benzoxatriazacyclopentadecine-14,19(5H,13H)-dione, 16,17,18,18a,20,21-hexahydro-22-methoxy-] | 7940 |  | 10000
13 | COc1cc2ncnc3c2cc1OCC(=O)N1CCCC1C(=O)NCc1ccc(Cl)cc1N3 (stereo not drawn) [Compound 126, 9,11-ethanediylidenepyrimido[4,5-b]pyrrolo[1,2-i][6,1,9,12]benzoxatriazacyclopentadecine-14,19(5H,13H)-dione, 3-chloro-16,17,18,18a,20,21-hexahydro-22-methoxy-] | 2000 |  | 2510
14 | COc1cc2ncnc3c2cc1OCC(=O)NC(C(C)O)C(=O)NCc1ccc(Cl)cc1N3 (stereo not drawn) [Compound 127, 4,6-ethanediylidenepyrimido[4,5-b][6,1,9,12]benzoxatriazacyclopentadecine-9,12(8H,13H)-dione, 17-chloro-10,11,14,19-tetrahydro-11-(1-hydroxyethyl)-20-methoxy-] | 251 |  | 1580
15 | CCC(C)C1NC(=O)CCCOc2cc3c(ncnc3cc2OC)Nc2cc(Cl)ccc2CNC1=O (stereo not drawn) [Compound 128, 4,6-ethanediylidenepyrimido[4,5-b][6,1,11,14]benzoxatriazacycloheptadecine-11,14(8H,15H)-dione, 19-chloro-9,10,12,13,16,21-hexahydro-22-methoxy-13-(1-methylpropyl)-] | 10 |  | 200
16 | COc1cc2ncnc3c2cc1OCC(=O)NC(CO)C(=O)NCc1ccc(Cl)cc1N3 (stereo not drawn) [Compound 129, 4,6-ethanediylidenepyrimido[4,5-b][6,1,9,12]benzoxatriazacyclopentadecine-9,12(8H,13H)-dione, 17-chloro-10,11,14,19-tetrahydro-11-(hydroxymethyl)-20-methoxy-] | 1580 |  | 3980
17 | COc1cc2ncnc3c2cc1OCCCC(=O)NC(CO)C(=O)NCc1ccc(Cl)cc1N3 (stereo not drawn) [Compound 130, 4,6-ethanediylidenepyrimido[4,5-b][6,1,11,14]benzoxatriazacycloheptadecine-11,14(8H,15H)-dione, 19-chloro-9,10,12,13,16,21-hexahydro-13-(hydroxymethyl)-22-methoxy-] | 25.1 |  | 126
18 | COc1cc2ncnc3c2cc1OCCCC(=O)NC(C)C(=O)NCc1ccc(Cl)cc1N3 (stereo not drawn) [Compound 131, 4,6-ethanediylidenepyrimido[4,5-b][6,1,11,14]benzoxatriazacycloheptadecine-11,14(8H,15H)-dione, 19-chloro-9,10,12,13,16,21-hexahydro-22-methoxy-13-methyl-] | 25.1 |  | 100
